{
  "source": "patent US4555525A",
  "about": "“Use of desethyl-N-acetylprocainamide (NAPADE) as an inotropic agent” (Administrators of the Tulane Educational Fund, priority 1984, dated 1985)",
  "key": {"[1]": {"conditions": "cited from earlier work"}, "[2]": {"test_system": "cardiac muscle", "test": "Cardiovascular effects of procainamide and NAPA, for comparison with NAPADE", "format": "in vivo", "conditions": "procainamide or NAPA; for effect on force of contraction of the heart muscle (inotropic effect): procainamide at 60 mg/kg i.v. as a 15 minute infusion, 60 mg/kg"}, "[3]": {"test_system": "cardiac muscle", "test": "NAPA effect after pretreatment with propranolol", "format": "in vivo"}, "[4]": {"test_system": "cardiac muscle", "test": "Cardiovascular effects in chloralose-urethane anesthetized dogs (myocardial force, heart rate, mean arterial pressure)", "format": "in vivo, dog (male mongrel)", "text": "We have investigated the cardiovascular effects of NAPADE in animal models and have observed the following unique properties of NAPADE: […]\n(§1) Myocardial force, mean arterial pressure and heart rate are expressed as the percent change from baseline for each experimental group. Statistical analysis was done with analysis of variance for repeated measurements and Duncan's multiple range test. All values are mean ± SEM."}, "[5]": {"conditions": "mice; cited from earlier work"}, "[6]": {"test": "NAPADE pharmacokinetics in chloralose-urethane anesthetized dogs (HPLC plasma levels, two-compartment model)", "format": "in vivo, dog (male mongrel)", "experimental": "Blood samples were obtained over a period of 5-120 minutes to measure NAPADE plasma concentration by high-performance liquid chromatography (HPLC) and to construct a plasma concentration versus time curve of FIG. 1.\nThe pharmacokinetics of NAPADE were analyzed with a two-compartment model with elimination from the central compartment. The method of residuals was used to resolve the exponential components of each plasma concentration versus time curve and to obtain estimates of alpha and beta (first-order rate constants) and A and B intercepts corrected to 0-time using the method of Loo and Reigelman. These parameters were then used to estimate apparent volume of distribution (V central, V peripheral, V total) and clearance values (Cl intercompartmental, Cl elimination) for each dog according to standard pharmacokinetic methodology."}, "[7]": {"test_system": "β-adrenergic receptor", "test": "Cardiovascular effects of NAPADE after pretreatment with propranolol in anesthetized dogs", "format": "in vivo, dog (male mongrel)", "text": "as §1"}, "[8]": {"conditions": "NAPADE-HCl 60 mg/kg, 15-minute IV infusion"}, "[9]": {"conditions": "individual dogs No. 1-8, one line per dog, NAPADE-HCl 60 mg/kg, 15-minute IV infusion, 60 mg/kg"}, "[10]": {"conditions": "NAPADE-HCl 60 mg/kg IV after propranolol 0.5 mg/kg followed by 10 μg/kg/min"}},
  "note": "“And” between values parts separate entries of the source, which are not always exact repeats. Identical values can stand only once. “Also recorded” adds a separate entry of the source. Like-named read-outs stand apart in the source and are kept apart here.",
  "data": [
    {"smiles": "CCN(CC)CCNC(=O)c1ccc(NC(C)=O)cc1", "note": "[NAPA, N-acetylprocainamide]", "values": [
      {"measurement": "elimination half-life", "setting": "[1]; NAPA in the dog, approximate", "value": "approximately six"},
      {"measurement": "elimination clearance", "setting": "[1]; NAPA in the dog", "value": "2.64 ± 0.9", "unit": "mL/min/kg"},
      {"measurement": "apparent volume of distribution (Vtotal)", "setting": "[1]; NAPA, previous studies", "value": "1.48 ± 0.16", "unit": "L/kg"},
      {"measurement": "effect on blood pressure (hypotensive effect)", "setting": "[2]", "value": "exhibiting hypotensive effects"},
      {"measurement": "effect on heart rate", "setting": "[2]", "value": "decreasing the heart rate"},
      {"measurement": "effect on force of contraction of the heart muscle (inotropic effect)", "setting": "[2]", "value": "increases the force of contraction of heart muscle; also recorded: positive inotropic effects"},
      {"measurement": "inotropic action after propranolol pretreatment", "setting": "[3]", "value": "negative inotropic action is apparent"}
    ]},
    {"smiles": "CCNCCNC(=O)c1ccc(NC(C)=O)cc1", "note": "[NAPADE, Desethyl-N-acetylprocainamide]", "values": [
      {"measurement": "duration of inotropic and chronotropic actions", "setting": "[4]; NAPADE-HCl 60 mg/kg IV", "value": "50 to 90", "unit": "min"},
      {"measurement": "duration of significantly increased myocardial force", "setting": "[4]; NAPADE-HCl 60 mg/kg IV, compared to the control group", "value": 90, "unit": "min"},
      {"measurement": "duration of significantly increased heart rate", "setting": "[4]; NAPADE-HCl 60 mg/kg IV, over control", "value": 50, "unit": "min"},
      {"measurement": "time of peak effects (inotropic and chronotropic)", "setting": "[4]; [8]", "value": 15, "unit": "min"},
      {"measurement": "maximum increase in heart rate over baseline", "setting": "[4]; NAPADE-HCl 60 mg/kg, 15-minute IV infusion, mean ± SEM", "value": "22.2±4.4", "unit": "percent over baseline"},
      {"measurement": "maximum increase in myocardial force over baseline", "setting": "[4]; NAPADE-HCl 60 mg/kg, 15-minute IV infusion, right ventricular, mean ± SEM", "value": "48.9±10", "unit": "percent over baseline"},
      {"measurement": "effect on blood pressure (hypotensive effect)", "setting": "[4]; NAPADE, result in words", "value": "lacks significant hypotensive effects; also recorded: small and statistically insignificant changes in blood pressure; also recorded: without significant changes in systemic arterial pressure"},
      {"measurement": "effect on heart rate (chronotropic effect)", "setting": "[4]; NAPADE, result in words", "value": "positive chronotropic effect; also recorded: significant increases in myocardial force and heart rate; also recorded: significant positive inotropic and chronotropic actions"},
      {"measurement": "effect on myocardial force of contraction (inotropic effect)", "setting": "[4]; NAPADE, result in words", "value": "positive inotropic effects; also recorded: very significant increase in myocardial force of contraction; also recorded: significant increases in myocardial force; also recorded: significant positive inotropic and chronotropic actions"},
      {"measurement": "antifibrillatory activity", "setting": "[5]", "value": "antifibrillatory activity"},
      {"measurement": "decline of plasma concentrations / kinetics of elimination", "setting": "[6]; [8]", "value": "declined in a bi-exponential fashion; also recorded: bi-exponential kinetics of elimination"},
      {"measurement": "apparent volume of distribution, NAPADE as a fraction of NAPA value", "setting": "[6]; compared with NAPA from previous studies", "value": "approximately one-third"},
      {"measurement": "half-life", "setting": "[6]; dog, plasma, iv, 60 mg/kg, individual dogs No. 1-8, one line per dog, NAPADE-HCl 60 mg/kg, 15-minute IV infusion, read-out: T1/2(BETA) (elimination half-life)", "value": 55, "unit": "min"},
      {"measurement": "half-life", "setting": "[6]; dog, plasma, iv, 60 mg/kg, mean of 8 dogs (± SEM in text), NAPADE-HCl 60 mg/kg, 15-minute IV infusion, read-out: T1/2 beta (terminal / elimination half-life)", "value": "54.5 ± 2.9", "unit": "min"},
      {"measurement": "clearance", "setting": "[6]; dog, plasma, iv, 60 mg/kg, mean of 8 dogs, NAPADE-HCl 60 mg/kg, 15-minute IV infusion, read-out: ClELIMINATION (elimination clearance)", "value": 8.56, "unit": "mL/min/kg"},
      {"measurement": "Vd", "setting": "[6]; dog, plasma, iv, 60 mg/kg, mean of 8 dogs, NAPADE-HCl 60 mg/kg, 15-minute IV infusion, read-out: VCENTRAL (volume of the central compartment)", "value": 0.153, "unit": "L/kg"},
      {"measurement": "Vd", "setting": "[6]; dog, plasma, iv, 60 mg/kg, mean of 8 dogs, NAPADE-HCl 60 mg/kg, 15-minute IV infusion, read-out: VTOTAL (total apparent volume of distribution)", "value": 0.513, "unit": "L/kg"},
      {"measurement": "Cmax at 0.25 h", "setting": "[6]; dog, plasma, NAPADE-HCl 60 mg/kg, 15-minute IV infusion, at 15 minutes, mean ± SEM, read-out: peak NAPADE concentrations (plasma)", "value": "165 ± 18.1", "unit": "µg/mL"},
      {"measurement": "Tmax", "setting": "[6]; dog, plasma, NAPADE-HCl 60 mg/kg, 15-minute IV infusion, read-out: time of peak plasma concentrations (converted)", "value": 15, "unit": "min"},
      {"measurement": "ClINTERC. (intercompartmental clearance)", "setting": "[6]; individual dogs No. 1-8, one line per dog, NAPADE-HCl 60 mg/kg, 15-minute IV infusion", "value": "7.46 mL/min/kg and 9.99 mL/min/kg and 24.67 mL/min/kg and 9.91 mL/min/kg and 24.12 mL/min/kg and 22.45 mL/min/kg and 9.31 mL/min/kg and 15.77 mL/min/kg"},
      {"measurement": "ClELIMINATION (elimination clearance)", "setting": "[6]; [9]", "value": "8.17 mL/min/kg and 4.99 mL/min/kg and 12.61 mL/min/kg and 7.34 mL/min/kg and 13.11 mL/min/kg and 11.54 mL/min/kg and 5.75 mL/min/kg and 5 mL/min/kg"},
      {"measurement": "T1/2(BETA) (elimination half-life)", "setting": "[6]; [9]", "value": "60 min and 67 min and 57 min and 56 min and 40 min and 47 min and 54 min"},
      {"measurement": "VTOTAL (total apparent volume of distribution)", "setting": "[6]; [9]", "value": "0.447 L/kg and 0.342 L/kg and 0.893 L/kg and 0.476 L/kg and 0.806 L/kg and 0.499 L/kg and 0.293 L/kg and 0.346 L/kg"},
      {"measurement": "ClINTERC. (intercompartmental clearance)", "setting": "[6]; mean of 8 dogs, NAPADE-HCl 60 mg/kg, 15-minute IV infusion", "value": 15.46, "unit": "mL/min/kg"},
      {"measurement": "ClELIMINATION (elimination clearance)", "setting": "[6]; mean of 8 dogs, NAPADE-HCl 60 mg/kg, 15-minute IV infusion, 60 mg/kg", "value": "8.56 ± 1.2", "unit": "mL/min/kg"},
      {"measurement": "negative inotropic (myocardial depressant) effect after propranolol pretreatment", "setting": "[7]; NAPADE in the presence of β-adrenergic receptor blockade with propranolol", "value": "lacks negative inotropic effects; also recorded: No such effect was seen"},
      {"measurement": "blood pressure effect after propranolol pretreatment", "setting": "[7]; [10]", "value": "only a mild decrease in blood pressure; also recorded: seemed to potentiate the mild hypotensive actions; also recorded: potentiated the mild hypotensive actions"},
      {"measurement": "chronotropic action after propranolol pretreatment", "setting": "[7]; [10]", "value": "abolishes the positive inotropic and chronotropic actions; also recorded: effectively blocked the positive inotropic and chronotropic actions"},
      {"measurement": "inotropic action after propranolol pretreatment", "setting": "[7]; [10]", "value": "abolishes the positive inotropic and chronotropic actions; also recorded: effectively blocked the positive inotropic and chronotropic actions"}
    ]},
    {"smiles": "CCN(CC)CCNC(=O)c1ccc(N)cc1", "note": "[procainamide, Procainamide]", "values": [
      {"measurement": "effect on blood pressure (hypotensive effect)", "setting": "[2]", "value": "exhibits hypotensive effects"},
      {"measurement": "effect on heart rate", "setting": "[2]", "value": "decreases the heart rate"},
      {"measurement": "effect on force of contraction of the heart muscle (inotropic effect)", "setting": "[2]", "value": "decreases the force of contraction of the heart muscle; also recorded: negative inotropic effect"}
    ]}
  ]
}
